Biological target: T1, aspartate α-decarboxylase (ADC) (Escherichia coli, UniProt A0A4Y8GT61)
T1 construct: gene panD; recombinant, purified from E. coli by earlier protocols; zymogen self-cleaved into alpha and beta chains, pyruvoyl cofactor at beta N-terminus; homotetramer
Assay: X-ray crystal structure of soaked crystal
Format: binding
Details: crystals in 1.8 M ammonium sulphate, 100 mM sodium citrate pH 4.5, D-serine soak about 2 min; active site; two ligand conformers (60% / 40% occupancy); inhibitor

Structure (SMILES): N[C@H](CO)C(=O)O [D-serine]
- X-ray crystal structure of soaked crystal: The crystal structure of ADC in complex with D-serine was determined
